{"source": "patent US8338473B2", "about": "“Derivatives of psammaplin A, a method for their synthesis and their uses for the prevention or treatment of cancer” (Centre National de la Recherche Scientifique, priority 2007, dated 2012)", "key": {"DU-145 cells": {"system": "DU-145 cells", "experiment": "MTT cytotoxicity assay, DU-145", "conditions": "read-out: IC50 values, MTT cytotoxicity assay; DU-145, 48 h", "description": "Plates were kept in the humidified CO2 (5%) incubator overnight so that cells get attached to the bottom. […] Viable cells cleave the MTT tetrazolium ring into a dark blue formazan reaction product, whereas dead cells remain colorless. The MTT-containing medium was gently removed and DMSO was added in each well. After shaking, the plates were read in absorbance at 540 nm. All results are expressed as the average of three wells. Percent cytotoxicity was measured of each compound and represented in terms of its IC50 values."}, "[1]": {"system": "U937 acute myeloid leukemia cell line", "experiment": "Cell cycle analysis in U937 cells", "assay_type": "cell-based, human", "conditions": "U937, 30 hrs", "procedure": "FIG. 1: a) Cell cycle analysis of U937 cells treated for 30 hrs with the indicated compounds used at 1 and 5 μM; b) Caspase 3 apoptotic assay of the indicated compounds after 24 hrs of treatment in the U937 cells; c) Tubulin acetylation and p21 expression levels at 6 and 16 hrs after treatment with the indicated compounds; total tubulin expression levels are used for equal loading; d) Histone H3 acetylation and K9 H3 methylation expression levels at 6 and 16 hrs after treatment with the indicated compounds; total tubulin expression levels are used for equal loading; e) K9, K14, K18 histone H3 acetylation expression levels at 6 and 16 hrs after treatment with the indicated compounds; total ERKs expression levels are used for equal loading; f) HDAC1 enzymatic assay: IP-HDAC1 is incubated with the indicated inhibitors for 24 Hrs; activity is measured as ^3H-acetyl release; g) HDAC4 enzymatic assay: IP-HDAC4 is incubated with the indicated inhibitors for 24 hrs; activity is measured as ^3H-acetyl release.\nFIG. 3: a) Cell cycle and apoptosis analysis carried out in U937 cells after 24 hrs with the indicated compounds; values are media of independent triplicates; b) CD11c expression analysis carried out in U937 cells with the indicated compounds; values are media of independent duplicates; c) Tubuline acetylation and p21 expression levels in U937 cells after 24 hrs with the indicated treatments; total ERKs expression levels are used for equal loading; d) acetylation of histone H3 under the conditions indicated in (c).\nHuman leukemia cell line U937 was propagated in RPMI medium supplemented with 10% FBS (Foetal bovine serum; Hyclone) and antibiotics (100 U/mL penicillin, 100 μg/mL streptomycin and 250 ng/mL amphotericin-B). Cells were kept at the constant concentration of 200000 cells per milliliter of culture medium. For AML samples, bone marrow containing 80% to 90% leukemic blasts was purified over Ficoll. This study was approved by the Ethical Committee of the Second University of Naples.\nMS-275 (Schering A G) was dissolved in ethanol and used at 5×10^−6M; valproic acid (VPA; Sigma) was used at 1 mM. All other compounds described were dissolved in DMSO (Sigma-Aldrich) and used at 1 or 5 μM.\n2.5×10^5 cells were collected and resuspended in 500 μL of a hypotonic buffer (0.1% Triton X-100, 0.1% sodium citrate, 50 μg/mL propidium iodide, RNAse A). Cells were incubated in the dark for 30 min. Samples were acquired on a FACS-Calibur flow cytometer using the Cell Quest software (Becton Dickinson) and analysed with standard procedures using the Cell Quest software (Becton Dickinson) and the ModFit LT version 3 Software (Verity). All the experiments were performed 3 times."}}}
{"smiles": "O=C(NCCSSCCNC(=O)C(Cc1c[nH]c2ccc(Br)cc12)=NO)C(Cc1c[nH]c2ccc(Br)cc12)=NO", "note": "[UVI5008]", "values": [{"measurement": "IC50", "setting": "DU-145 cells", "result": "2.4 ± 0.3", "unit": "µM"}, {"measurement": "cell cycle arrest, position of the block", "setting": "[1]; 1 μM", "result": "arrests cells in G2-M"}, {"measurement": "cell cycle arrest, position of the block", "setting": "[1]; 1 and 5 μM", "result": "arrests in the S and G2 phases"}]}
